From ChEMBL document CHEMBL5154867, “Baylis-Hillman Adducts as a Versatile Module for Constructing Fluorogenic Release System” (J Med Chem, 2022)
The source made the active and inactive calls. The calls are words filed in the database; no cut-off is given here.

Columns and labels:
[1] = Prodrug activation in PBS at pH 7.4 assessed as retention time of CPT at 10 uM in presence of 1 mM GSH by LC-MS analysis; settings: buffer, pH 7.4, 10 µM
[2] = Prodrug activation in human HepG2 cells assessed as GSH bis-adduct formation by measuring green fluorescence at 10 uM incubated upto 30 mins by inverted fluorescence microscopy; format: cell-based; settings: hepg2, 0.5 h
[3] = Prodrug activation in PBS at pH 7.4 assessed as GSH bis-adduct formation at 10 uM in presence of 1 mM GSH measured 10 mins by LC-MS analysis; settings: buffer, pH 7.4, 10 min
[4] = Prodrug activation in PBS at pH 7.4 assessed as CPT release at 10 uM measured within 30 mins by fluorescence microscopy; settings: buffer, pH 7.4, 0.5 h
[5] = Prodrug activation in human HepG2 cells assessed as retention time of GSH bis-adduct formation at 10 uM treated for 1 hr in presence of 1 mM GSH by LC-MS analysis; format: cell-based; settings: hepg2, 1 h
[6] = Prodrug activation in PBS at pH 7.4 assessed as retention time of GSH mono-adduct formation at 10 uM in presence of 1 mM GSH by LC-MS analysis; settings: buffer, pH 7.4, 10 µM
[7] = Prodrug activation in PBS at pH 7.4 assessed as retention time of GSH bis-adduct formation at 10 uM in presence of 1 mM GSH by LC-MS analysis; settings: buffer, pH 7.4, 10 µM
[8] = Prodrug activation in PBS at pH 7.4 assessed as retention time of prodrug at 10 uM in presence of 1 mM GSH by LC-MS analysis; settings: buffer, pH 7.4, 10 µM
[9] = Prodrug activation in human HepG2 cells assessed as CPT release by measuring blue fluorescence at 10 uM incubated upto 30 mins by inverted fluorescence microscopy; format: cell-based; settings: hepg2, 0.5 h
[10] = Stability of compound in mouse plasma assessed as prodrug remaining at 100 uM measured upto 12 hrs by HPLC analysis; format: ADME, cell-free
[11] = Prodrug activation in PBS at pH 7.4 assessed as CPT release at 10 uM in presence of 1 mM GSH measured after 5 mins by LC-MS analysis; settings: buffer, pH 7.4, 5 min
[12] = Prodrug activation in human HepG2 cells assessed as retention time of CPT by LC-MS analysis; format: cell-based
[13] = Prodrug activation in PBS at pH 7.4 assessed as GSH mono-adduct formation at 10 uM in presence of 1 mM GSH measured after 5 mins by LC-MS analysis; settings: buffer, pH 7.4, 5 min
[14] = Prodrug activation in PBS at pH 7.4 assessed as rate of CPT release at 10 uM measured within 10 mins by fluorescence microscopy; settings: buffer, pH 7.4, 10 min
[15] = Prodrug activation in human HepG2 cells assessed as retention time of prodrug by LC-MS analysis; format: cell-based
BV-2 [16] = assay: Neuroprotective activity against OGD-induced mouse BV2 cells assessed as morphological change at 1 to 4 uM incubated for 4 hrs by fluorescence microscopy; format: functional, cell-based; settings: dose 1-4 µM
BV-2 [17] = assay: Cytotoxicity against mouse BV-2 cells assessed as cell survival upto 2 uM incubated for 24 hrs by MTT assay; format: toxicity, cell-based; settings: bv-2, 24 h
Astrocyte = assay: Cytotoxicity against astrocyte cells assessed as cell survival upto 2 uM incubated for 24 hrs by MTT assay; format: toxicity, cell-based
[18] = Prodrug activation in zebrafish assessed as green fluorescence signal at 20 uM incubated for 20 mins by fluorescence microscopy; parameters: species or system Danio rerio
[19] = Prodrug activation in PBS at pH 7.4 assessed as GSH-induced NO release by measuring increase in fluorescence at 10 uM in presence of 1 mM GSH; settings: buffer, pH 7.4, 10 µM
[20] = Prodrug activation in PBS at pH 6.5 to 9.0 at 10 uM incubated for 60 mins in presence of 1 mM GSH by fluorescence based assay; settings: buffer, pH 6.5, 1 h
[21] = Prodrug activation in PBS assessed as increase in GSH-activated NO release at 10 uM in presence of 1 mM GSH measured for 40 mins by Griess assay; settings: buffer
[22] = Drug uptake in mouse brain assessed as penetration depth at 1 mM treated for 2 hrs by two-photon based fluorescence microscopy; format: ADME, tissue-based; settings: in vivo, 1000 µM
[23] = Prodrug activation in PBS at pH 7.4 assessed as GSH bis-adduct at 10 uM incubated upto 60 mins in presence of 1 mM GSH by LC-MS analysis; settings: buffer, pH 7.4, 1 h
[24] = Drug uptake in zebrafish embryo assessed as penetration depth at 20 uM treated for 20 mins by two-photon based fluorescence microscopy; format: ADME, Danio rerio; settings: in vivo
[25] = Prodrug activation in PBS at pH 7.4 assessed as decrease in compound at 10 uM incubated upto 60 mins in presence of 1 mM GSH by LC-MS analysis; settings: buffer, pH 7.4, 1 h
BV-2 [26] = assay: Neuroprotective activity against OGD-induced mouse BV2 cells assessed as increase in cell viability at 2 to 4 uM incubated for 4 hrs followed by reoxygenation by MTT assay; format: functional, cell-based; settings: dose 2-4 µM
[27] = Prodrug activation in PBS at pH 7.4 assessed as GSH-induced NO release by measuring increase in fluorescence at 10 uM incubated for 60 mins in presence of 1 mM GSH by fluorescence based assay; settings: buffer, pH 7.4, 1 h
BV-2 [28] = assay: Cytotoxicity against mouse BV2 cells assessed as cell survival at less than 4 uM incubated for 24 hrs by MTT assay; format: toxicity, cell-based; settings: bv-2, 24 h
[29] = Prodrug activation in human HepG2 cells assessed as NO release by measuring red fluorescence at 20 uM treated for 15 mins by dRB-OPD staining based fluorescence microscopy; format: cell-based; settings: hepg2, 0.25 h
[30] = Prodrug activation in PBS at pH 7.4 assessed as change in fluorescence signal at 10 uM incubated for 60 mins in presence of 1 mM cysteine by fluorescence based assay; settings: buffer, pH 7.4, 1 h
[31] = Prodrug activation in human HepG2 cells assessed as bis-thiol adduct by measuring green fluorescence at 20 uM treated for 15 mins by fluorescence microscopy; format: cell-based; settings: hepg2, 0.25 h
[32] = Prodrug activation in zebrafish assessed as NO release by measuring red fluorescence signal at 20 uM incubated for 20 mins by dRB-OPD staining based fluorescence microscopy; parameters: species or system Danio rerio
[33] = Prodrug activation in PBS at pH 7.4 assessed as change in fluorescence signal at 10 uM incubated for 60 mins in presence of 1 mM homocysteine by fluorescence based assay; settings: buffer, pH 7.4, 1 h
[34] = Prodrug activation in PBS assessed as amount of GSH-activated NO release at 17 uM in presence of 1 mM GSH by Griess assay; settings: buffer

C=C(COC(=O)O[C@]1(CC)C(=O)OCc2c1cc1n(c2=O)Cc2cc3ccccc3nc2-1)C(=O)c1ccc2cc(N(C)C)ccc2c1
Retention_time [1]: 10.2 min
Drug metabolism [2]: Metabolite_Detected
Activity [3]: Active
Activity [4]: Active
Retention_time [5]: 5.1 min
Retention_time [6]: 13.5 min
Retention_time [7]: 5.1 min
Retention_time [8]: 28.9 min
Drug metabolism [9]: Metabolite_Detected
Stability [10]: > 60%
Activity [11]: Active
Retention_time [12]: 10.2 min
Activity [13]: Active
Activity [14]: > 90%
Retention_time [15]: 28.9 min

C=C(CO/N=[N+](/[O-])N1CCCC1)C(=O)c1ccc2cc(N(C)C)ccc2c1
Activity (BV-2 [16]): Active
Activity (BV-2 [17]): Non-Toxic
Activity (Astrocyte): Non-Toxic
Drug metabolism [18]: Metabolite_Detected
Activity [19]: Active
Activity [20]: Active
Activity [21]: Active
Drug metabolism [22]: Metabolite_Detected
Activity [23]: Active
Drug metabolism [24]: Metabolite_Detected
Activity [25]: Active
Stability [10]: > 60%
Activity (BV-2 [26]): Active
Activity [27]: Active
Activity (BV-2 [28]): Active
Drug metabolism [29]: Metabolite_Detected
Activity [30]: Active
Drug metabolism [31]: Metabolite_Detected
Drug metabolism [32]: Metabolite_Detected
Activity [33]: Active
Activity [34]: 85%
